The values below come from patent US8415380B2 (Hoffmann-La Roche Inc., priority 2007, dated 2013).

Regarding `CCC(=O)NS(=O)(=O)c1cccc(-c2cc(-c3nc(-c4ccc(C(F)(F)F)nc4)cc(C(F)(F)F)n3)ccn2)c1` [Example 11, N-Propionyl-3-{4-[4-trifluoromethyl-6-(6-trifluoromethyl-pyridin-3-yl)-pyrimidin-2-yl]-pyridin-2-yl}-benzenesulfonamide], the melting point was 242 °C.
With `Nc1ccc(-c2cn(-c3nc(-c4ccc(C(F)(F)F)nc4)cc(C(F)F)n3)cn2)cn1` [Example 14, 5-{1-[4-Difluoromethyl-6-(6-trifluoromethyl-pyridin-3-yl)-pyrimidin-2-yl]-1H-imidazol-4-yl}-pyridin-2-ylamine] the figure was 258 °C; with `Cc1cc(-c2ccc(C(F)(F)F)nc2)nc(-c2cccc(-c3cccc(S(N)(=O)=O)c3)n2)n1` [Example 28, 3-{6-[4-Methyl-6-(6-trifluoromethyl-pyridin-3-yl)-pyrimidin-2-yl]-pyridin-2-yl}-benzenesulfonamide], 254 °C; with `NS(=O)(=O)c1ccc(-c2cccc(-c3nc(-c4ccc(C(F)(F)F)nc4)cc(C(F)F)n3)c2)s1` [Example 18, 5-{3-[4-Difluoromethyl-6-(6-trifluoromethyl-pyridin-3-yl)-pyrimidin-2-yl]-phenyl}-thiophene-2-sulfonic acid amide], 245.5 °C.
In the case of `Cc1cc(-c2ccc(C(F)(F)F)nc2)nc(-c2ccnc(-c3cccc(S(N)(=O)=O)c3)c2)n1` [Example 21, 3-{4-[4-Methyl-6-(6-trifluoromethyl-pyridin-3-yl)-pyrimidin-2-yl]-pyridin-2-yl}-benzenesulfonamide] it was 255 °C; in that of `Cc1cc(-c2ccc(C(F)(F)F)nc2)cc(-c2cccc(-c3ccc(S(N)(=O)=O)s3)c2)n1` [Example 35, 5-[3-(6′-Methyl-6-trifluoromethyl-[3,4′]bipyridinyl-2′-yl)-phenyl]-thiophene-2-sulfonic acid amide], 231 to 233 °C; in that of `Cc1cc(-c2ccc(C(F)(F)F)nc2)nc(-c2cccc(-c3cccc(S(N)(=O)=O)c3)c2)n1` [Example 23, 3′-[4-Methyl-6-(6-trifluoromethyl-pyridin-3-yl)-pyrimidin-2-yl]-biphenyl-3-sulfonic acid amide], 220 °C.
In turn, `NS(=O)(=O)c1cccc(-c2cccc(-c3nc(-c4ccc(C(F)(F)F)nc4)cc(C(F)F)n3)c2)c1` [Example 15, 3′-[4-Difluoromethyl-6-(6-trifluoromethyl-pyridin-3-yl)-pyrimidin-2-yl]-biphenyl-3-sulfonic acid amide] returned a melting point of 222 °C.
Turning to `Cc1cc(-c2ccc(C(F)(F)F)cn2)nc(-c2cccc(-c3cccc(S(N)(=O)=O)c3)n2)n1` [Example 27, 3-{6-[4-Methyl-6-(5-trifluoromethyl-pyridin-2-yl)-pyrimidin-2-yl]-pyridin-2-yl}-benzenesulfonamide], the melting point is 246 to 252 °C.
In turn, `NS(=O)(=O)c1cccc(-c2cc(-c3nc(-c4ccc(C(F)(F)F)nc4)cc(C(F)F)n3)ccn2)c1` [Example 16, 3-{4-[4-Difluoromethyl-6-(6-trifluoromethyl-pyridin-3-yl)-pyrimidin-2-yl]-pyridin-2-yl}-benzenesulfonamide] had a melting point of 264.5 °C.
In turn, `NS(=O)(=O)c1ccc(-c2cccc(-c3nc(-c4ccc(Cl)s4)cc(C(F)(F)F)n3)c2)s1` [Example 7, 5-{3-[4-(5-Chloro-thiophen-2-yl)-6-trifluoromethyl-pyrimidin-2-yl]-phenyl}-thiophene-2-sulfonic acid amide] displayed a melting point of 233 °C.
`Cc1cc(-c2ccc(C(F)(F)F)nc2)nc(-c2ccnc(-c3ccc(S(N)(=O)=O)s3)c2)n1` [Example 22, 5-{4-[4-Methyl-6-(6-trifluoromethyl-pyridin-3-yl)-pyrimidin-2-yl]-pyridin-2-yl}-thiophene-2-sulfonic acid amide] yielded a melting point of 289 °C.

For orientation: melting point means the temperature, or range, at which the solid turns liquid.
